Tests used:
[1] = target: T1, human A1 adenosine receptor (Homo sapiens, UniProt P30542); assay: biochemical
T1 sequence (P30542 1-326): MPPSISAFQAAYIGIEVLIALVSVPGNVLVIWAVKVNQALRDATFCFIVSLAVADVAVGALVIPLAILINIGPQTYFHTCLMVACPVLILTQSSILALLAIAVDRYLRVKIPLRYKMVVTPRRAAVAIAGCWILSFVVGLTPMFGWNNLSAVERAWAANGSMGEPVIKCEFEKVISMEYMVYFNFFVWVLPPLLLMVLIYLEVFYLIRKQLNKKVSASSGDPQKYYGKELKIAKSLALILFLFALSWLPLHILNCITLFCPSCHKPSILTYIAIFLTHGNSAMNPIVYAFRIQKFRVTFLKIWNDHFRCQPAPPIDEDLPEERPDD

[2] = target: T2, human A2A adenosine receptor (Homo sapiens, UniProt P29274); settings: 50 μM compound; Fig. 1
T2 sequence (P29274 whole entry): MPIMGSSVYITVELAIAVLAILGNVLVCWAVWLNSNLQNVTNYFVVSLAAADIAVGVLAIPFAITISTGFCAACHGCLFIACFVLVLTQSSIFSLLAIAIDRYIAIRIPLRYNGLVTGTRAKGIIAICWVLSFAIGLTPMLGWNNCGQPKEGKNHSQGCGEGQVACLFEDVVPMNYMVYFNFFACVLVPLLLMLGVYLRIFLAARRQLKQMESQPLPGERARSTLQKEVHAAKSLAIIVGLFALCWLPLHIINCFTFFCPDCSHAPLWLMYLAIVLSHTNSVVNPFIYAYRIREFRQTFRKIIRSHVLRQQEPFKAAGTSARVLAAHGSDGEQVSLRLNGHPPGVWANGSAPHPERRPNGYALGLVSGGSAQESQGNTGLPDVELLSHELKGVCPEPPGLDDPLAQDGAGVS

[3] = target: T2, human A2A adenosine receptor; assay: biochemical
A3 receptor = settings: read-out: experimental Ki, A3 AR; ref PubChem CID 9958472; cited from earlier work
[4] = target: T3, human A3 adenosine receptor (Homo sapiens, UniProt P0DMS8); settings: read-out: Ki, A3 AR; USEF; HeLa-A3 membranes; 10 nM [3H]-NECA
T3 sequence (P0DMS8 1-318): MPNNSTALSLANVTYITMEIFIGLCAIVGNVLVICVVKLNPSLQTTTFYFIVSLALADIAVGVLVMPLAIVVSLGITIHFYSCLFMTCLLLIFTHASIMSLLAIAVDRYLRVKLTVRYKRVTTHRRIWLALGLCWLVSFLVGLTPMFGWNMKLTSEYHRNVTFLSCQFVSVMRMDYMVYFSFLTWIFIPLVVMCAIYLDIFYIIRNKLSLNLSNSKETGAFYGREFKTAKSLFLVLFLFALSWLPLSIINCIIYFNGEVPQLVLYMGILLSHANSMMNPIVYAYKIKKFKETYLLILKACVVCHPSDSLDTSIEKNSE

human blood platelets [5] = assay: Formation of thrombus on collagen in flow conditions; assay type: cell-based; settings: whole blood perfused over collagen; 50 μM compound; n = 9
human blood platelets [6] = assay: ADP-induced platelet aggregation in platelet-rich plasma; assay type: cell-based; settings: 10 μM ADP, mean ± SD, n = 6–9
human blood platelets [7] = assay: Aggregation of blood platelets in whole blood; settings: for effect on ADP-induced platelet aggregation in whole blood: ADP, 10, 30, 50 μM compound, n = 13; for effect on arachidonic acid-induced platelet aggregation in whole blood: data not shown; for effect on collagen-induced platelet aggregation in whole blood: collagen 1 μg/mL
[8] = target: T4, human A2B adenosine receptor (Homo sapiens, UniProt P29275); settings: read-out: Ki, A2B AR; USEF; HEK-A2B membranes; 25 nM [3H]-DPCPX
T4 sequence (P29275 1-332): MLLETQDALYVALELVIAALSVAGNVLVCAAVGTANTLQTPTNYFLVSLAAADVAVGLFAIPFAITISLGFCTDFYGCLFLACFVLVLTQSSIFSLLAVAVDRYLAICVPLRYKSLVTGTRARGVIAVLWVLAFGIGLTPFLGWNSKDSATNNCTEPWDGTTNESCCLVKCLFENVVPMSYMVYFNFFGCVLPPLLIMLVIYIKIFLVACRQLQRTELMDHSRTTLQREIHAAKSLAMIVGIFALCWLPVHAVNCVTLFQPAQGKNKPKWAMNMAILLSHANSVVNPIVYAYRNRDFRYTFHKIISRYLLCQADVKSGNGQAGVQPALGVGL

Row | Molecule | Ki [1] [nM] | radioligand displacement at A2A receptor [2] | IC50 [3] [nM] | Ki (A3 receptor) [nM] | Ki [4] [nM] | effect on thrombus formation on collagen under flow (human blood platelets [5]) | area under the aggregation curve, ADP-induced platelet aggregation (human blood platelets [6]; 10 μM compound) [arbitrary units] | area under the aggregation curve, ADP-induced platelet aggregation (human blood platelets [6]; 50 μM compound) [arbitrary units] | effect on ADP-induced platelet aggregation in whole blood (human blood platelets [7]) | effect on arachidonic acid-induced platelet aggregation in whole blood (human blood platelets [7]) | effect on collagen-induced platelet aggregation in whole blood (human blood platelets [7]) | Ki [8] [nM]
1 | OC[C@H]1O[C@@H](n2cnc3c(NCCCc4ccccc4)nc(Cl)nc32)[C@H](O)[C@@H]1O [Compound 24, 6-N-(3-phenylpropyl)-2-chloroadenosine] | 3340 | at least 50% | 22000 ± 4400 |  |  |  |  |  |  |  |  | 
2 | CNC(=O)[C@H]1O[C@@H](n2cnc3c(NCc4ccc(N)c(I)c4)ncnc32)[C@H](O)[C@@H]1O [I-AB-MECA] |  |  |  | 1.2 to 2.1 |  |  |  |  |  |  |  | 
3 | 5′-ethylcarbamoyl-N^6-(3-phenylpropyl)adenosine [Compound 18] |  |  |  |  | 4.5 | did not exert an inhibitory effect | 630.0 ± 80.3 | 336.8 ± 108.5 | significantly inhibited | no effect | significantly inhibited | 1380
4 | OC[C@H]1O[C@@H](n2cnc3c(NCCCc4ccccc4)ncnc32)[C@H](O)[C@@H]1O [Compound 40, N^6-(3-phenylpropyl)adenosine] |  | at least 50% |  |  |  | smaller than the thrombi in the untreated samples |  |  | significantly decreased | did not inhibit | did not inhibit | 

— paper PMC8448983 (European journal of medicinal chemistry, 2021)
